Measured values as given in article PMC3148848 (Journal of medicinal chemistry, 2009).

Biological target: SARS-CoV PLpro (Severe acute respiratory syndrome coronavirus, UniProt P0C6X7)
Format: biochemical

Cc1ccccc1C(=O)N[C@H](C)c1ccc2ccccc2c1 [lead]
mode of inhibition (kinetic studies): reversible inhibitor
